# Where a SMILES comes first, the peptide text is derived from it.
# What was measured:
# [1] = tested on: sensory panelists; assay: Sweetness modifier test, control vs sample with 30 ppm rebaudioside J (Example 6A); format: in vivo, human; conditions: sweetener plus 30 ppm rebaudioside J vs sweetener alone; about 5% SEV / 5 degrees Brix; pH 3.1 phosphate buffer; 13 to 16 panelists
# Method: The ability of rebaudioside J to modify the sweetness of natural and artificial sweeteners was assessed by comparing the sweetness of control samples without rebaudioside J to the sweetness of samples containing a mixture of the natural or artificial sweetener being tested and rebaudioside J. Control solutions were prepared by dissolving sucrose, HFCS, acesulfame-K, aspartame, and sucralose in pH 3.1 phosphate buffer. […] Sucrose and high fructose corn syrup (HFCS) were prepared as 5 degrees Brix solutions. This concentration was confirmed with an Anton Paar refractometer. […] Experimental samples were identical to control samples except for the addition of 30 ppm rebaudioside J. Tasting Protocol: The number of sensory panelists ranged from 13 to 16 for all sweeteners tested. Panelists were provided with a control sample prepared as described above. Panelists were also provided with an otherwise identical experimental sample prepared as described above. Panelists were asked to determine which sample tasted sweeter. […] Panelists wore nose clips and were blinded to the identity of the samples. Sensitivity index, also referred to as a “d' score” was calculated using known statistical methods.
# [2] = tested on: human sense of taste; assay: Sweetness recognition threshold comparison with 1.5% sucrose; format: in vivo; conditions: rebaudioside J 40 ppm
# From the text: The term “sweetness recognition threshold concentration,” as generally used herein, is the lowest known concentration of a given sweetener or combination of sweeteners recognized as sweet by the human sense of taste, typically about 1.5% sucrose equivalence.
# [3] = tested on: panelists; assay: Benchtop sweetness ranking on 1-10 scale against rebaudioside A 400 ppm and sucrose 6.5% (Example 3); format: in vivo, human; conditions: 400 ppm
# Method: Sample preparation: 4 degrees Brix HFCS control solution was prepared by adding 50.89 grams of 78.60 degrees Brix HFCS to 1000 g phosphoric acid base which was prepared by adding phosphoric acid dropwise into 1 L of AQUAFINA water until a pH of 3.1 was observed on a calibrated METTLER TOLEDO PH meter.
# For some low soluble compounds, Branson 2800 Ultra Sonic Bath was used to dissolve the material. If any cloudiness persisted, the sample solution was passed through a paper filter. Solubility was confirmed by shining a laser pointer through the solution. If no diffraction was observed then it was assumed that the material was soluble.
# Preparation of Rebaudioside A for Sensory Evaluation: 400 ppm rebaudioside A in water (pH=7) was prepared by dissolving 40 mg of rebaudioside A with stirring in 100 mL of water at room temperature.
# Preparation of Sucrose for Sensory Evaluation: 6.5% sucrose in water (pH=7) was prepared by adding 6.5 g of sucrose and dissolving it in 93.5 g water (total 100 gr).
# Tasting Protocol: Panelists were presented with two numbered samples and asked to note the sweet quality differences between the two samples. Panelists commented on sweetness onset, sweetness linger, overall sugar-like sweetness, and other qualities, such as bitter taste, metallic note, astringency, cooling sensation, any off-notes, and any associated flavors. […]
# [4] = tested on: trained sensory panelists; assay: Dose response, trained sensory panel, 15-point line scale (Example 4A); format: in vivo, human; conditions: eight concentrations 11.13-625.61 ppm
# Method: Eight concentrations of rebaudioside J with one blank solution were evaluated (Table 1). Trained sensory panelists participated in an orientation session to familiarize themselves with sample set. Three evaluations (replicates) were obtained from each panelist for each evaluation, and a total of 30 judgments were obtained for each sample.
# The panelists were served 10 mL portions of each sample. A 10-minute break was taken between samples. To determine sweetness intensity, the panelists were provided sucrose-containing sweetness intensity reference samples for intensities 5, 8, and 10. For each test sample, the panelists indicated the sweetness intensity of the test sample (labeled with a 3-digit number) on a 15-point line scale.
# [5] = tested on: trained sensory panelists; assay: Adaptation, sweetness and bitterness over time (Example 4B); format: in vivo, human
# Method: Three evaluations (replicates) were obtained from each panelist for each evaluation, and a total of 30 judgments were obtained for each sample. The samples were evaluated for sweetness and bitterness. Samples were presented blind and coded with random three-digit numbers.
# Each panelists took a sip, swirled the sample in his or her mouth for 10 seconds, expectorated and subsequently rated sweetness intensity and bitterness intensity using a 15-point line scale. Panelists repeated this procedure every 30 seconds for 3 minutes. After rinsing 6 times with water, the panelists were given a new sample and that sample was evaluated using the procedure described above
# [6] = tested on: trained sensory panelists; assay: Targeted descriptive analysis (Example 4C); format: in vivo, human; conditions: vs rebaudioside A
# Method: Panelists participated in an orientation session to familiarize themselves with sample set. They reviewed aroma, taste, flavor, and texture to determine the attributes most important for describing and differentiating the samples. These attributes were used to develop the ballot for the test evaluations. Three evaluations (replicates) were obtained from each panelist for each evaluation, and a total of 30 judgments were obtained for each sample. 45 mL of each sample was served in a sequential monadic presentation. The serving order was balanced for each panelist. For each test sample, the panelists indicated the intensity of each sensory attribute (labeled with a 3-digit number) on a 15-point line scale.
# [7] = rated every 30 seconds for 3 minutes, 15-point line scale
structure (smiles),measurement,setting,value
CC1=CC(=O)NS(=O)(=O)O1 [Acesulfame potassium],Panelist reporting Rebaudioside J increased sweetness (%),[1],85%
same,d' Score,[1],2.30
"C=C1C[C@@]23CC[C@H]4[C@@](C)(CCC[C@@]4(C)C(=O)O[C@@H]4O[C@H](CO)[C@@H](O)[C@H](O)[C@H]4O[C@@H]4O[C@@H](C)[C@H](O)[C@@H](O)[C@H]4O)[C@@H]2CC[C@]1(O[C@@H]1O[C@H](CO)[C@@H](O)[C@H](O[C@@H]2O[C@H](CO)[C@@H](O)[C@H](O)[C@H]2O)[C@H]1O[C@@H]1O[C@H](CO)[C@@H](O)[C@H](O)[C@H]1O)C3 [Rebaudioside J, rebaudioside J]",sweetness compared with 1.5% sucrose (sweetness recognition threshold),[2],less sweet than 1.5% sucrose
same,panelists' notes on taste characteristics,[3],"lack of bitterness, sugar-like, syrupy and round characteristics"
same,sweetness score on scale of 1-10 (FIG. 3),"[3]; rebaudioside A 400 ppm assigned 5, sucrose 6.5% assigned 10, noseclips, blinded",6.7
same,bitterness intensity (FIG. 4),[4],low and only increased slightly with increasing concentration
same,sweetness intensity (FIG. 4),[4],increases with increasing concentration
same,bitterness intensity over time (FIG. 5),[5]; [7],remains low
same,sweetness intensity over time (FIG. 5),[5]; [7],decreases over time
same,bitterness over time compared with rebaudioside A (FIG. 7),[5]; vs rebaudioside A,less bitter than rebaudioside A
same,bitterness compared with rebaudioside A (FIG. 6),[6]; 15-point line scale,less bitter
same,chemical/artificial taste compared with rebaudioside A (FIG. 6),[6]; 15-point line scale,less chemical/artificial taste than rebaudioside A
same,overall impression compared with rebaudioside A (FIG. 8),[6],scored higher in overall impression than rebaudioside A
"OC[C@H]1O[C@@](CO)(O[C@H]2O[C@H](CO)[C@@H](O)[C@H](O)[C@H]2O)[C@@H](O)[C@@H]1O [Sucrose, sucrose]",Panelist reporting Rebaudioside J increased sweetness (%),[1],85%
same,d' Score,[1],2.00
"COC(=O)[C@H](Cc1ccccc1)NC(=O)[C@@H](N)CC(=O)O [Aspartame, aspartame] (H-Asp-Phe-OMe)",Panelist reporting Rebaudioside J increased sweetness (%),[1],86%
same,d' Score,[1],2.13
"OC[C@H]1O[C@H](O[C@]2(CCl)O[C@H](CCl)[C@@H](O)[C@@H]2O)[C@H](O)[C@@H](O)[C@H]1Cl [Sucralose, sucralose]",Panelist reporting Rebaudioside J increased sweetness (%),[1],89%
same,d' Score,[1],2.44

# From patent US20250031734A1, “COMPOSITIONS COMPRISING REBAUDIOSIDE J” (PepsiCo, Inc., priority 2016, published 2025)
